Test results reported in PubChem BioAssay (NCI).
Values joined by “and” are separate entries in the source; they are usually repeats but may differ in a detail not shown here. Equal entries are not always repeated.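 48-hour exposure; five concentrations; linearly interpolated endpoints. GI50: concentration for 50% inhibition of growth. Definition used: TGI = concentration required for complete inhibition of growth.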

Experiments:
Assay in all cases: NCI tumour cell line growth inhibition, 48 h
[1] = tested on: SNB-19 CNS
[2] = tested on: TK-10 renal
[3] = tested on: HCC-2998 colon
[4] = tested on: HOP-92 NSCLC
[5] = tested on: SN12C renal
[6] = tested on: NCI/ADR-RES ovarian
[7] = tested on: RPMI-8226 leukemia
[8] = tested on: MDA-MB-435
[9] = tested on: EKVX NSCLC
[10] = tested on: T-47D breast
[11] = tested on: KM12 colon
[12] = tested on: OVCAR-3 ovarian
[13] = tested on: SW-620 colon
[14] = tested on: COLO 205 colon
[15] = tested on: SK-MEL-5 melanoma
[16] = tested on: MALME-3M melanoma
[17] = tested on: 786-0 renal
[18] = tested on: ACHN renal
[19] = tested on: OVCAR-5 ovarian
[20] = tested on: MDA-MB-231 breast
[21] = tested on: NCI-H226 lung
[22] = tested on: PC-3 prostate
[23] = tested on: HS 578T breast
[24] = tested on: HCT-15 colon
[25] = tested on: UACC-62 melanoma
[26] = tested on: MOLT-4 leukemia
[27] = tested on: HOP-62 NSCLC
[28] = tested on: NCI-H23 lung
[29] = tested on: SK-MEL-2 melanoma
[30] = tested on: OVCAR-8 ovarian
[31] = tested on: NCI-H460 lung
[32] = tested on: NCI-H522 lung
[33] = tested on: DU-145 prostate
[34] = tested on: U251 CNS
[35] = tested on: SF-539 CNS
[36] = tested on: HT29 colon
[37] = tested on: UO-31 renal
[38] = tested on: LOX IMVI melanoma
[39] = tested on: SF-295 CNS
[40] = tested on: A498 renal
[41] = tested on: RXF 393 renal
[42] = tested on: K-562 leukemia
[43] = tested on: BT-549 breast
[44] = tested on: IGROV1 ovarian
[45] = tested on: MDA-N
[46] = tested on: SK-OV-3 ovarian
[47] = tested on: HCT-116 colon
[48] = tested on: MCF7 breast
[49] = tested on: HL-60(TB) leukemia
[50] = tested on: SF-268 CNS
[51] = tested on: M14 melanoma
[52] = tested on: SK-MEL-28 melanoma
[53] = tested on: UACC-257 melanoma
[54] = tested on: OVCAR-4 ovarian
[55] = tested on: SR leukemia
[56] = tested on: A549 NSCLC
[57] = tested on: CAKI-1 renal
[58] = tested on: CCRF-CEM leukemia
[59] = tested on: SNB-75 CNS

## COc1cc2c3c(n(CCCNCCO)c(=O)c2cc1OC)-c1cc2c(cc1C3=O)OCO2
[1]
  TGI: > 100 µM
[2]
  TGI: 28.5 µM
[3]
  GI50: 0.978 µM
  TGI: 1.97 µM and 11.1 µM
[4]
  GI50: 0.831 µM and 0.102 µM
  TGI: 2.77 µM and 3.56 µM
[5]
  GI50: < 0.0119 µM
  TGI: 1.19 µM
[6]
  GI50: 0.295 µM
  TGI: > 100 µM
[7]
  GI50: 0.173 µM
  TGI: > 100 µM
[8]
  GI50: 0.528 µM and 1.34 µM
[9]
  GI50: 0.257 µM and 0.557 µM
  TGI: 1.22 µM
[10]
  TGI: 1.52 µM
[11]
  GI50: 3.16 µM
[12]
  TGI: 5.3 µM
[13]
  GI50: 0.0228 µM
  TGI: 2.6 µM and 2.03 µM
[14]
  TGI: 2 µM and 5.42 µM
[15]
  TGI: 1.51 µM and 1.56 µM
[16]
  GI50: 0.252 µM and 0.143 µM
  TGI: 4.06 µM and 2 µM
[17]
  TGI: 0.118 µM and 0.0216 µM
[18]
  TGI: 0.176 µM and 0.369 µM
[19]
  GI50: 14.4 µM
[20]
  GI50: 1.09 µM
  TGI: 2.03 µM and 5.18 µM
[21]
  GI50: 0.0474 µM
  TGI: 1.46 µM and 0.269 µM
[22]
  GI50: 10.2 µM
[23]
  TGI: 27.3 µM
[24]
  GI50: 0.548 µM and 0.657 µM
  TGI: 2.08 µM and 7.76 µM
[25]
  GI50: 0.0394 µM
  TGI: 0.842 µM and 0.779 µM
[26]
  TGI: 0.0279 µM
[27]
  GI50: 0.0127 µM and 0.0979 µM
[28]
  GI50: 0.0437 µM
  TGI: 0.171 µM and 0.493 µM
[29]
  GI50: 2.55 µM and 10.9 µM
  TGI: 5.84 µM and 23.7 µM
[30]
  TGI: 5.34 µM
[31]
  TGI: 0.23 µM and 0.0797 µM
[32]
  GI50: 0.0144 µM
  TGI: 0.966 µM and 3.8 µM
[33]
  GI50: 0.0299 µM
[34]
  GI50: 0.0191 µM and < 0.0383 µM
  TGI: 1.09 µM and 1.62 µM
[35]
  TGI: 1.36 µM
[36]
  GI50: 0.0502 µM
  TGI: 0.589 µM
[37]
  GI50: 0.0183 µM and 0.181 µM
[38]
  TGI: 0.169 µM
[39]
  GI50: < 0.0188 µM
  TGI: 1.29 µM and 4.27 µM
[40]
  GI50: 0.033 µM
  TGI: 1.87 µM and 1.49 µM
[41]
  GI50: 0.139 µM and 0.268 µM
  TGI: 1.26 µM and 5.75 µM
[42]
  GI50: 2.16 µM and 0.511 µM
  TGI: > 100 µM
[43]
  TGI: 7.97 µM
[44]
  TGI: 2.38 µM
[45]
  GI50: 2.3 µM
[46]
  GI50: 0.603 µM and 0.663 µM
  TGI: 2.15 µM and 19 µM
[47]
  GI50: 0.0662 µM and 0.0639 µM
  TGI: 1.05 µM and 0.686 µM
[48]
  TGI: 0.155 µM and 0.113 µM
[49]
  GI50: < 0.0277 µM
[50]
  GI50: < 0.01 µM
  TGI: 0.448 µM
[51]
  GI50: 0.0575 µM
  TGI: 0.573 µM and 0.679 µM

## COc1ccc(CNc2nc(NCc3ccc(OC)cc3)nc(NC3CCCCC3)n2)cc1
[1]
  TGI: 5.96 µM
[2]
  TGI: 4.11 µM
[3]
  TGI: 3.74 µM
[52]
  TGI: > 100 µM
[4]
  TGI: > 100 µM
[5]
  TGI: > 100 µM
[6]
  TGI: 5.36 µM
[7]
  TGI: > 100 µM
[8]
  TGI: 1.94 µM
[9]
  TGI: 8.5 µM
[10]
  TGI: > 100 µM
[11]
  TGI: 5.47 µM
[12]
  TGI: 6.24 µM
[13]
  TGI: > 100 µM
[53]
  TGI: > 100 µM
[14]
  TGI: 5.35 µM
[54]
  TGI: > 100 µM
[15]
  TGI: > 100 µM
[16]
  TGI: 1.61 µM
[17]
  TGI: > 100 µM
[55]
  TGI: > 100 µM
[18]
  TGI: > 100 µM
[19]
  TGI: > 100 µM
[20]
  TGI: 7.73 µM
[21]
  TGI: 5.71 µM
[22]
  TGI: > 100 µM
[23]
  TGI: 4.85 µM
[56]
  TGI: 5.31 µM
[24]
  TGI: 9.52 µM
[57]
  TGI: 4.86 µM
[25]
  TGI: 9.41 µM
[26]
  TGI: > 100 µM
[27]
  TGI: > 100 µM
[29]
  TGI: 7.86 µM
[30]
  TGI: 7.17 µM
[31]
  TGI: 7.78 µM
[32]
  TGI: 3.39 µM
[33]
  TGI: 6.88 µM
[34]
  TGI: > 100 µM
[35]
  TGI: > 100 µM
[36]
  TGI: > 100 µM
[37]
  TGI: 96.6 µM
[38]
  TGI: 20.2 µM
[39]
  TGI: 4.14 µM
[40]
  TGI: > 100 µM
[42]
  TGI: > 100 µM
[43]
  TGI: 37.9 µM
[44]
  TGI: 6.22 µM
[45]
  TGI: > 100 µM
[46]
  TGI: > 100 µM
[47]
  TGI: 11.7 µM
[48]
  TGI: 0.533 µM
[49]
  TGI: > 100 µM
[50]
  TGI: 6.5 µM

## C=C[C@]1(C)CC[C@]2(C)C(CC[C@@]3(C)C2C[C@H](O)[C@H](O)[C@@]3(C)O)C1 (stereo partly specified)
[1]
  TGI: > 100 µM
[2]
  TGI: > 100 µM
[3]
  TGI: > 100 µM
[52]
  TGI: > 100 µM
[5]
  TGI: > 100 µM
[6]
  TGI: > 100 µM
[7]
  TGI: > 100 µM
[8]
  TGI: > 100 µM
[9]
  TGI: > 100 µM
[10]
  TGI: > 100 µM
[11]
  TGI: > 100 µM
[12]
  TGI: > 100 µM
[13]
  TGI: > 100 µM
[53]
  TGI: > 100 µM
[14]
  TGI: > 100 µM
[15]
  TGI: > 100 µM
[16]
  TGI: > 100 µM
[17]
  TGI: > 100 µM
[55]
  TGI: > 100 µM
[18]
  TGI: > 100 µM
[19]
  TGI: > 100 µM
[20]
  TGI: > 100 µM
[21]
  TGI: > 100 µM
[22]
  TGI: > 100 µM
[23]
  TGI: > 100 µM
[56]
  TGI: > 100 µM
[24]
  TGI: > 100 µM
[57]
  TGI: > 100 µM
[25]
  TGI: > 100 µM
[26]
  TGI: > 100 µM
[27]
  TGI: > 100 µM
[28]
  TGI: > 100 µM
[29]
  TGI: > 100 µM
[30]
  TGI: > 100 µM
[31]
  TGI: > 100 µM
[32]
  TGI: > 100 µM
[58]
  TGI: > 100 µM
[33]
  TGI: > 100 µM
[34]
  TGI: > 100 µM
[35]
  TGI: > 100 µM
[36]
  TGI: > 100 µM
[37]
  TGI: > 100 µM
[38]
  TGI: > 100 µM
[39]
  TGI: > 100 µM
[40]
  TGI: > 100 µM
[59]
  TGI: > 100 µM
[42]
  TGI: > 100 µM
[43]
  TGI: > 100 µM
[44]
  TGI: > 100 µM
[45]
  TGI: > 100 µM
[46]
  TGI: > 100 µM
[47]
  TGI: > 100 µM
[48]
  TGI: > 100 µM
[49]
  TGI: > 100 µM
[50]
  TGI: > 100 µM
[51]
  TGI: > 100 µM
